Source: patent publication US12139520B2 (priority 2020, dated 2024)
Bridge positions count the residues as written; N and C are the ends. Square brackets hold non-standard residues; d marks the D form. Peptide text beside a SMILES is read from it. Hyp = O=C(O)[C@@H]1C[C@@H](O)CN1; Cit = NC(=O)NCCC[C@H](N)C(=O)O

Legend:
hAM1 receptor = hAM1 receptor (Homo sapiens, UniProt O60895+Q16602); experiment: cAMP assay for in vitro receptor activation, hAM1-R; assay type: cell-based; conditions: cAMP assay, hAM1 receptor; read-out: hAM1R EC50
In short: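 Read-out is intracellular cAMP as a measure of receptor activation. Cells stably overexpressing hAM1 were subcloned to a monoclonal line, then thawed and seeded at 8000 cells/well in DPBS with 0.05% casein and the phosphodiesterase inhibitor IBMX at 0.5 mM.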

[1] = Physical stability of peptide analogues (Thioflavin T fibrillation); assay type: physicochemical; conditions: maximum ThT signal normalized between hAMY maximum and buffer background; 40° C., shaking, four days; pH 7 per table title
In short: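 Maximum ThT emission at 480 nm, after LOESS smoothing, is given as percent of the span from buffer background to hAMY. Conditions: 50 mM buffer at pH 4 or 7, 4 μM dye, 40 °C, repeated shaking, readings every 10 min for four days.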

hAMY3 receptor = target: T1, hAMY3 receptor (Homo sapiens, UniProt O60896+P30988); experiment: cAMP assay for in vitro receptor activation, hAMY3-R; assay type: cell-based; conditions: cAMP assay, hAMY3 receptor; read-out: hAMY3R EC50
T1 sequence (P30988 25-474): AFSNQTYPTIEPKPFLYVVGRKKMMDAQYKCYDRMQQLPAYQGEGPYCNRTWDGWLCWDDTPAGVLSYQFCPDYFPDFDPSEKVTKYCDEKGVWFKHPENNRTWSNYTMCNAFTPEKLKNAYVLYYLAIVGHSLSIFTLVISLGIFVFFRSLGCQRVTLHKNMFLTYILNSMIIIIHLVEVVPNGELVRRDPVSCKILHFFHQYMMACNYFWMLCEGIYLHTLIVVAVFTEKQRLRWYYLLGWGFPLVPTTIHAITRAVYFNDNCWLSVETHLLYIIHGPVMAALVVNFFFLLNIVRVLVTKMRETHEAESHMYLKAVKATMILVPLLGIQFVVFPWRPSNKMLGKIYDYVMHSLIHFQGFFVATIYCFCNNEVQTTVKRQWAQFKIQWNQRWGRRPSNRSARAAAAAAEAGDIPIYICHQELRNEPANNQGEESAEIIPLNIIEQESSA
T1 sequence (O60896 24-148 partner): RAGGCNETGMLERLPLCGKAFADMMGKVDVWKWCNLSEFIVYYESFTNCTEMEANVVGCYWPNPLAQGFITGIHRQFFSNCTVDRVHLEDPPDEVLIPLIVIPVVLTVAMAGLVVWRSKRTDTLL
In short: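 Receptor activation was measured as cAMP accumulation in a monoclonal cell line stably overexpressing hAMY3. Stimulation with graded doses lasted 30 min at room temperature in the presence of 0.5 mM IBMX, with human amylin as positive control.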

Sequence of hAM1 receptor (Q16602 23-461): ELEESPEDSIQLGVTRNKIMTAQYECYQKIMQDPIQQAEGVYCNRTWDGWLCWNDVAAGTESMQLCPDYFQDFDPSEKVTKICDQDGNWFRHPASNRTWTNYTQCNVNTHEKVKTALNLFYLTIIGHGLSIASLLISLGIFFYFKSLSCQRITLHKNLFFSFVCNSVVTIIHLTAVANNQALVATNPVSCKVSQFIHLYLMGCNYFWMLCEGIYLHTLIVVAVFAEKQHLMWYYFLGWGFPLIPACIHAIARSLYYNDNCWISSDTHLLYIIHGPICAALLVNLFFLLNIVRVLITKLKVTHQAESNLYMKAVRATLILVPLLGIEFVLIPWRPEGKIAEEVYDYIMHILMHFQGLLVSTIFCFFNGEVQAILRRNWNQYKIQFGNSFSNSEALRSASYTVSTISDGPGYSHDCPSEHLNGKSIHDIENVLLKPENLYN
Sequence of hAM1 receptor (O60895 43-175 partner): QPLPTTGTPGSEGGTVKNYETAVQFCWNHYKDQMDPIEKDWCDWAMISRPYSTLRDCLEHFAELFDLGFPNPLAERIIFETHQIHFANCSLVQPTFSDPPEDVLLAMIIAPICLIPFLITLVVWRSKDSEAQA

| EC50 (hAM1 receptor) [nM] | Max ThT signal (%) [1] [%] | EC50 (hAMY3 receptor) [nM] | SMILES |
| --- | --- | --- | --- |
| > 5000 | 10.100 | 0.025 | CC[C@H](C)[C@H](NC(=O)[C@H](CCC(N)=O)NC(=O)[C@H](Cc1c[nH]cn1)NC(=O)[C@H](C)NC(=O)[C@H](CC(C)C)NC(=O)[C@H](Cc1c[nH]c2ccccc12)NC(=O)[C@H](CCC(N)=O)NC(=O)[C@@H](NC(=O)[C@@H](NC(=O)[C@@H]1CSSC[C@H](NC(=O)[C@@H](N)CCCCN)C(=O)N[C@@H](CC(N)=O)C(=O)N[C@@H]([C@@H](C)O)C(=O)N[C@@H](C)C(=O)N[C@@H]([C@@H](C)O)C(=O)N1)[C@@H](C)O)C(C)C)C(=O)N[C@@H](Cc1ccc(O)cc1)C(=O)N[C@@H](CCC(N)=O)C(=O)N[C@@H](Cc1ccccc1)C(=O)N[C@H](C(=O)N[C@@H](CC(=O)O)C(=O)N[C@@H](CCCCN)C(=O)N[C@@H](CC(=O)O)C(=O)N[C@@H](CCCCN)C(=O)N[C@@H](CC(=O)O)C(=O)N[C@@H](CC(N)=O)C(=O)N[C@H](C(=O)N[C@@H](C)C(=O)N[C@@H](C)C(=O)N1CCC[C@H]1C(=O)N[C@H](C(=O)N[C@@H](CC(N)=O)C(=O)N[C@H](C(=O)NCC(=O)N[C@@H](CO)C(=O)N[C@@H](CC(N)=O)C(=O)NCC(=O)N1C[C@H](O)C[C@H]1C(N)=O)C(C)C)[C@@H](C)O)C(C)C)[C@@H](C)O [compound 325] (H-KCNTATCTVQWLAHQIYQFTDKDKDNVAAPTNVGSNG[Hyp]-NH2; disulfide 2-7; N-terminus assumed) |
| > 5000 | 17.450 | 0.03 | CC[C@H](C)[C@H](NC(=O)[C@H](CCC(N)=O)NC(=O)[C@H](Cc1c[nH]cn1)NC(=O)[C@H](C)NC(=O)[C@H](CC(C)C)NC(=O)[C@H](CCCNC(N)=O)NC(=O)[C@H](CCC(N)=O)NC(=O)[C@@H](NC(=O)[C@@H](NC(=O)[C@@H]1CSSC[C@H](NC(=O)CN)C(=O)N[C@@H](CCCNC(=N)N)C(=O)N[C@@H](Cc2ccccc2)C(=O)NCC(=O)N[C@@H]([C@@H](C)O)C(=O)N1)[C@@H](C)O)C(C)C)C(=O)N[C@@H](Cc1ccc(O)cc1)C(=O)N[C@@H](CCC(N)=O)C(=O)N[C@@H](Cc1ccccc1)C(=O)N[C@H](C(=O)N[C@@H](CC(=O)O)C(=O)N[C@@H](CCCCN)C(=O)N[C@@H](CC(=O)O)C(=O)N[C@@H](CCCCN)C(=O)N[C@@H](CC(=O)O)C(=O)N[C@@H](CC(N)=O)C(=O)N[C@H](C(=O)N[C@@H](C)C(=O)N1CCC[C@H]1C(=O)N[C@@H](CCCNC(=N)N)C(=O)N[C@H](C(=O)N[C@@H](CCCCN)C(=O)N[C@H](C(=O)N[C@@H](CO)C(=O)N1CCC[C@H]1C(=O)N[C@@H](CC(N)=O)C(=O)NCC(=O)N1C[C@H](O)C[C@H]1C(N)=O)C(C)C)[C@@H](C)O)C(C)C)[C@@H](C)O [compound 288] (H-GCRFGTCTVQ[Cit]LAHQIYQFTDKDKDNVAPRTKVSPNG[Hyp]-NH2; disulfide 2-7; N-terminus assumed) |
| > 5000 | 5.000 | 0.064 | CC[C@H](C)[C@H](NC(=O)[C@H](CCC(N)=O)NC(=O)[C@H](Cc1c[nH]cn1)NC(=O)[C@H](C)NC(=O)[C@H](CC(C)C)NC(=O)[C@H](CCCNC(=N)N)NC(=O)[C@H](CCC(N)=O)NC(=O)[C@@H](NC(=O)[C@@H](NC(=O)[C@@H]1CSSC[C@H](NC(=O)CN)C(=O)N[C@@H](CCCNC(=N)N)C(=O)N[C@@H](Cc2c[nH]c3ccccc23)C(=O)NCC(=O)N[C@@H]([C@@H](C)O)C(=O)N1)[C@@H](C)O)C(C)C)C(=O)N[C@@H](Cc1ccc(O)cc1)C(=O)N[C@@H](CCC(N)=O)C(=O)N[C@@H](Cc1ccccc1)C(=O)N[C@H](C(=O)N[C@@H](CC(=O)O)C(=O)N[C@@H](CCCCN)C(=O)N[C@@H](Cc1ccccc1)C(=O)N[C@@H](CCCCN)C(=O)N[C@@H](CC(=O)O)C(=O)N[C@@H](CC(N)=O)C(=O)N[C@H](C(=O)N[C@@H](C)C(=O)N1CCC[C@H]1C(=O)N[C@@H](CCCNC(=N)N)C(=O)N[C@@H](CO)C(=O)N[C@@H](CCCCN)C(=O)N[C@H](C(=O)N[C@@H](CO)C(=O)N1CCC[C@H]1C(=O)N[C@@H](CCC(N)=O)C(=O)N[C@H](C(=O)N1C[C@H](O)C[C@H]1C(N)=O)[C@@H](C)O)[C@@H](C)CC)C(C)C)[C@@H](C)O [compound 171] (H-GCRWGTCTVQRLAHQIYQFTDKFKDNVAPRSKISPQT[Hyp]-NH2; disulfide 2-7; N-terminus assumed) |
